The first assay concerns NICD (Notch intracellular domain) CSL-bla reporter in HeLa cells. Nature of the assay: Notch assay (CellSensor T-REx NICD CSL-bla HeLa beta-lactamase reporter; Method 1 / Method 2). It counts as cell-based. Conditions: Homo sapiens, 10 μM compound, Method 1 (10× compound prepared in assay medium, added to plated cells), read-out: inhibiton (%) at 10 μM. From the text:
We used the CellSensor T-REx™ NICD CSL-bla HeLa cell line, which was engineered by lentiviral transduction of HeLa cells with a Notch response element driving beta-lactamase reporter gene expression (CSL-bla) along with DOX (doxycycline)-inducible NICD (Notch intracellular domain) constructs. Addition of DOX to these cells allows for regulated NICD transcription factor expression and subsequent beta-lactamase expression.
Specifically, the following protocol was used.
NOTCH ASSAY PROTOCOL (Method 2)
• 1. Add 40 nL/well of working concentration of 1000× compound to 384-well assay plate with Echo. • 2. Plate Cells: 35 μl/well of HeLa/T-REx™ NICD CSL-bla cells at 10^3 cells/well complete medium into 384-well plate. • 3. Add 5 μl 8× Doxycycline in Assay Medium to the treated wells, and 5 μl Assay Medium to the Untreated and cell free control wells. • 4. Incubate the assay plate in a humidified 37° C./5% CO2 incubator for 16-20 hours. • 5. Preparation of 6× LiveBLAzer™-FRET B/G Substrate (CCF4-AM) Mixture according to the manual and cell loading should be done in the absence of direct strong lighting. • 6. Remove assay plate from the humidified 37° C./5% CO2 incubator. Add 8 μl of 6× Substrate Mixture from Step 5 to each well. Cover the plate to protect it from light and evaporation. Incubate at room temperature for 4 hours. • 7. Reading an Assay Plate using the following filter selections:
• 8. Data analysis: Use the assay plate layout to identify the location of the Cell-free wells. These control wells are used for background subtraction. Determine the average emission from the Cell-free wells at both 460 nm (Average Blue Background) and 530 nm(Average Green Background). Subtract the Average Blue Background (data collected at 460 nm) from all of the blue emission data. Subtract the Average Green background (data collected at 530 nm) from all of the green emission data. Calculate the Blue/Green Emission Ratio for each well, by dividing the background-subtracted blue emission values by the background-subtracted green emission values.
Instead of Step 1 to Step 3, the following Step a to Step d can also be performed. The subsequent steps are the same as Method 2, after Step 4 (Method 1). • a. Plate Cells: 32 μL/well of HeLa/T-REx™ NICD CSL-bla cells at 10^3 cells/well complete medium into 384-well plate. • b. Prepare 10× compounds in assay medium. • c. Add 4 μL compounds or 1% DMSO in assay medium to the cells. • d. Add 4 μL 10×Doxycycline in Assay Medium to the treated wells, and 4 μL Assay Medium to the Untreated and cell free control wells.
The results are shown in Table 13 (Table 13-1 to Table 13-2).
For `CC(C)CCN1CC2N(C(=O)OCc3cccc4ccccc34)O[C@@H](CC(N)=O)C(=O)N2[C@@H](CC2CCCCC2)C1=O` (stereo partly drawn) [Compound I-27, (3S,6S)-naphthalen-1-ylmethyl 3-(2-amino-2-oxoethyl)-6-(cyclohexylmethyl)-8-isopentyl-4,7-dioxohexahydropyrazino[2,1-c][1,2,4]oxadiazine-1(6H)-carboxylate], the inhibition at 10 µM amounted to 62.9%.
Still for that read-out and setting: as for `CC(C)[C@H]1C(=O)N(CC2CCCCC2)CC2N(C(=O)OCc3cccc4ccccc34)O[C@H](CC(N)=O)C(=O)N21` (stereo partly drawn) [Compound I-18, (3R,6S)-naphthalen-1-ylmethyl 3-(2-amino-2-oxoethyl)-8-(cyclohexylmethyl)-6-isopropyl-4,7-dioxohexahydropyrazino[2,1-c][1,2,4]oxadiazine-1(6H)-carboxylate], the figure is 54%.

Staying with this assay, now noted: Homo sapiens, 10 μM compound, Method 2 (40 nL of 1000× compound added to plate with Echo), read-out: inhibiton (%) at 10 μM.
For `C[C@H]1C(=O)N(Cc2cccc3ccccc23)CC2N(C(=O)OCC3CCCCC3)O[C@H](CCCNC(=N)N)C(=O)N21` (stereo partly drawn) [Compound I-52, (3R,6S)-cyclohexylmethyl 3-(3-guanidinopropyl)-6-methyl-8-(naphthalen-1-ylmethyl)-4,7-dioxohexahydropyrazino[2,1-c][1,2,4]oxadiazine-1(6H)-carboxylate], the inhibition at 10 µM was 51.4%.
For the molecule `Cc1ccc(S(=O)(=O)N2CCC(CCCN3O[C@H](CC(C)C)C(=O)N4C3CN(C3CCN(C)CC3)C(=O)[C@@H]4CC(C)C)CC2)cc1` (stereo partly drawn) [Compound I-149, (3R,6S)-3,6-diisobutyl-8-(1-methylpiperidin-4-yl)-1-(3-(1-tosylpiperidin-4-yl)propyl)tetrahydropyrazino [2,1-c][1,2,4]oxadiazine-4,7(3H,6H)-dione], the inhibition at 10 µM worked out at 114%.
Still for that read-out and setting: then `CC(C)C[C@H]1ON(C(=O)OCc2ccccc2)[C@H]2CN(C3CCN(C)CC3)C(=O)[C@H](CCCCNCc3ccc4ccccc4n3)N2C1=O` [Compound I-145, benzyl (3R,6S,9aS)-3-isobutyl-8-(1-methylpiperidin-4-yl)-4,7-dioxo-6-(4-((quinolin-2-ylmethyl)amino)butyl) hexahydropyrazino[2,1-c][1,2,4]oxadiazine-1(6H)-carboxylate], with 89%.
With `CCCCCOC(=O)N1O[C@H](Cc2ccc(O)cc2)C(=O)N2C1CN([C@@H](Cc1ccc(O)cc1)C(=O)NCCc1ccccc1)C(=O)[C@@H]2Cc1ccc(O)cc1` (stereo partly drawn) [Compound I-118, pentyl (3R,6S)-3,6-bis(4-hydroxybenzyl)-8-((S)-3-(4-hydroxyphenyl)-1-oxo-1-(phenethylamino)propan-2-yl)-4,7-dioxohexahydropyrazino[2,1-c][1,2,4]oxadiazine-1(6H)-carboxylate], the inhibition at 10 µM was 63.3%.
The same measure, in the same setting: as for `CC(C)C[C@H]1ON(C(=O)OCCc2ccccc2)C2CN([C@@H](Cc3ccc(O)cc3)C(=O)NCCc3ccccc3)C(=O)[C@H](Cc3ccc(O)cc3)N2C1=O` (stereo partly drawn) [Compound I-102, phenethyl (3R,6S)-6-(4-hydroxybenzyl)-8-((S)-3-(4-hydroxyphenyl)-1-oxo-1-(phenethylamino)propan-2-yl)-3-isobutyl-4,7-dioxohexahydropyrazino[2,1-c][1,2,4]oxadiazine-1(6H)-carboxylate], the figure is 67.3%.
The same measure, in the same setting: as for `CC(C)C[C@H]1ON(C(=O)NCCC(c2ccccc2)c2ccccc2)C2CN(Cc3ccc4ccccc4c3)C(=O)[C@H](CCC(N)=O)N2C1=O` (stereo partly drawn) [Compound I-55, (3R,6S)-6-(3-amino-3-oxopropyl)-N-(3,3-diphenylpropyl)-3-isobutyl-8-(naphthalen-2-ylmethyl)-4,7-dioxohexahydropyrazino[2,1-c][1,2,4]oxadiazine-1(6H)-carboxamide], the figure is 58.7%.
On the same count and under the same terms, then `NC(=O)CC[C@H]1ON(C(=O)NCCC(c2ccccc2)c2ccccc2)C2CN(Cc3cccc4ccccc34)C(=O)[C@H](Cc3ccccc3)N2C1=O` (stereo partly drawn) [Compound I-54, (3R,6S)-3-(3-amino-3-oxopropyl)-6-benzyl-N-(3,3-diphenylpropyl)-8-(naphthalen-1-ylmethyl)-4,7-dioxohexahydropyrazino[2,1-c][1,2,4]oxadiazine-1(6H)-carboxamide], with 60.4%; and `CC(C)CCOC(=O)N1O[C@H](Cc2ccccc2)C(=O)N2C1CN([C@@H](Cc1ccccc1)C(=O)NCCc1ccccc1)C(=O)[C@@H]2Cc1ccc(O)cc1` (stereo partly drawn) [Compound I-105, isopentyl (3R,6S)-3-benzyl-6-(4-hydroxybenzyl)-4,7-dioxo-8-((S)-1-oxo-1-(phenethylamino)-3-phenylpropan-2-yl)hexahydropyrazino[2,1-c][1,2,4]oxadiazine-1(6H)-carboxylate], with 60.9%.
Turning to `CCCC[C@@H](C(=O)NCCc1ccccc1)N1CC2N(C(=O)OCCc3ccc(O)cc3)O[C@H](CC(C)C)C(=O)N2[C@@H](Cc2ccc(O)cc2)C1=O` (stereo partly drawn) [Compound I-103, 4-hydroxyphenethyl (3R,6S)-6-(4-hydroxybenzyl)-3-isobutyl-4,7-dioxo-8-((S)-1-oxo-1-(phenethylamino)hexan-2-yl)hexahydropyrazino[2,1-c][1,2,4]oxadiazine-1(6H)-carboxylate], the inhibition at 10 µM stood at 59.9%.
On the same count and under the same terms, then `CC(C)C[C@H]1ON(C(=O)OCCc2ccc(O)cc2)C2CN([C@@H](Cc3ccccc3)C(=O)NCCc3ccccc3)C(=O)[C@H](Cc3ccc(O)cc3)N2C1=O` (stereo partly drawn) [Compound I-93, 4-hydroxyphenethyl (3R,6S)-6-(4-hydroxybenzyl)-3-isobutyl-4,7-dioxo-8-((S)-1-oxo-1-(phenethylamino)-3-phenylpropan-2-yl)hexahydropyrazino[2,1-c][1,2,4]oxadiazine-1(6H)-carboxylate], with 76.3%; and `CC(C)CCCNC(=O)[C@H](Cc1ccc(O)cc1)N1CC2N(C(=O)OCCc3ccccc3)O[C@H](CC(C)C)C(=O)N2[C@@H](Cc2ccc(O)cc2)C1=O` (stereo partly drawn) [Compound I-99, phenethyl (3R,6S)-6-(4-hydroxybenzyl)-8-((S)-3-(4-hydroxyphenyl)-1-((4-methylpentyl)amino)-1-oxopropan-2-yl)-3-isobutyl-4,7-dioxohexahydropyrazino [2,1-c][1,2,4]oxadiazine-1(6H)-carboxylate], with 58%.
In the case of `CC(C)C[C@H]1ON(C(=O)OCCc2ccccc2)C2CN([C@@H](Cc3ccccc3)C(=O)NCCCc3ccccc3)C(=O)[C@H](CCC(N)=O)N2C1=O` (stereo partly drawn) [Compound I-123, phenethyl (3R,6S)-6-(3-amino-3-oxopropyl)-3-isobutyl-4,7-dioxo-8-((S)-1-oxo-3-phenyl-1-((3-phenylpropyl)amino)propan-2-yl)hexahydropyrazino[2,1-c][1,2,4]oxadiazine-1(6H)-carboxylate], the inhibition at 10 µM was 52.3%.
Still for that read-out and setting: as for `CCCCCOC(=O)N1O[C@H](Cc2ccccc2)C(=O)N2C1CN([C@@H](Cc1ccc(O)cc1)C(=O)NCCCC(C)C)C(=O)[C@@H]2Cc1ccc(O)cc1` (stereo partly drawn) [Compound I-111, pentyl (3R,6S)-3-benzyl-6-(4-hydroxybenzyl)-8-((S)-3-(4-hydroxyphenyl)-1-((4-methylpentyl)amino)-1-oxopropan-2-yl)-4,7-dioxohexahydropyrazino[2,1-c][1,2,4]oxadiazine-1(6H)-carboxylate], the figure is 53.9%.
The same measure, in the same setting: as for `CC(C)C[C@H]1ON(C(=O)OCc2cccc3ccccc23)C2CN(C3CCNCC3)C(=O)[C@H](CC(C)C)N2C1=O` (stereo partly drawn) [Compound I-136, naphthalen-1-ylmethyl (3R,6S)-3,6-diisobutyl-4,7-dioxo-8-(piperidin-4-yl)hexahydropyrazino[2,1-c][1,2,4]oxadiazine-1(6H)-carboxylate], the figure is 79.7%.

The values are drawn from patent publication US20230374034A1, “NOVEL BICYCLIC COMPOUNDS” (PRISM BIOLAB CO., LTD., priority 2020, published 2023).
